Measured values taken from US10624884B2, “H4 agonist molecule for the treatment of idiopathic pulmonary fibrosis” (H4 ORPHAN PHARMA, priority 2016, dated 2020).

Columns and labels:
[1] = test system: CFU rich in H4 receptor; experiment: Proliferation of CFU rich in H4 receptor (FIG. 5); assay type: cell-based; settings: for Activity on CFU proliferation when an anti H4 is used: with an anti H4
[2] = test system: idiopathic pulmonary fibrosis; settings: 1,800 mg/d for one year, in addition to corticoids and azathioprine, cited from earlier work
[3] = test system: TGFβ; experiment: Bleomycin mouse model: measurement of cytokines (TGFβ) in lung homogenate, Luminex assay; assay type: in vivo, mice (C57/B16J, BL6); settings: BLM mice; P=0.001 for both substances; FIG. 1A
Procedure: (§1) The bleomycin mouse protocol (BLM) was conducted with all of the mice of each group of 10 mice (species: C57/B16J, referred to further on as BL6); these are female mice 8 weeks old.
(§2) All of the mice of all of the groups (except group 1) receive bleomycin (BLM) intranasally (3 mg/kg via intranasal instillation) for 5 consecutive days and will be monitored daily and killed at D+29 after BLM instillation in order to study the chronic pulmonary inflammation and the fibrosis. The bleomycin being administered five times at the age of 8 weeks (see diagram 3A).
(§3) The treatment with tritoqualine is done in 2 doses, 20 and 40 mg/kg/day throughout the entire life of the mice. The treatment with tritoqualine starts fourteen days after the first inhalation of the treatment with bleomycin. The treatment is done orally. The groups studied were as follows:
The interferon gamma and TGFβ levels were measured in a lung homogenate; the concentrations of these different cytokines were determined by a Luminex assay using a MAGPIX (Biorad, France) according to the manufacturer's instructions.

[4] = test system: collagen; experiment: Bleomycin mouse model: titration of collagen (hydroxyproline) in lung homogenate; assay type: in vivo, mice (C57/B16J, BL6); settings: for Collagen (hydroxyproline), mean±standard deviation: BLM mice, n=10, bleomycin group 340.0±4.888
Procedure: as §1, §2, §3
The collagen content is done after homogenisation of the lung. After bronchoalveolar lavage (BAL), the entire lung was perfused with a saline solution through the right ventricle of the heart in order to empty the vascular content.
The lungs were frozen at −70° C. until they were used. The lung was then homogenised in PBS and centrifuged.
The supernatant was discarded and the lower portion was put back into suspension in 1 ml of PBS containing 0.5% hexadecyltrimethylammonium bromide (HTAB) and 5 mM ethylene-diamine-tetra-acetic acid (EDTA).
After centrifugation, the collagen content was determined by the Sircol assay (France Biochem Division, France), as described by the manufacturer.
The titration of the collagen (method by the dosage of hydroxyproline) is expressed in μg/mg of proteins.

[5] = test system: bleomycin mouse model of idiopathic pulmonary fibrosis (BL6 mice); experiment: Bleomycin mouse model: lung histology, semi-quantitative fibrosis score (Ashcroft score); assay type: in vivo, mice (C57/B16J
Procedure: as §1
The analyse of the Fibrosis was conducted with all the animals of each group, respectively. The extent of the fibrosis was analysed biochemically, histologically and cytologically using various quantitative and semi quantitative methods.
All of the mice BL6 are treated according to the protocol hereinbelow. • 5 groups of mice were evaluated.
The treatment with bleomycin (BLM) is done according to the following protocol:
as §2, §3
After bronchoalveolar lavage (BAL) and perfusion of the lung, the large lobe was fixed in 4% buffered formaldehyde for standard microscopic analysis (Leica microscope). […] sections were coloured with Masson's trichrome (TM) by using standard techniques, which allow for the evaluation of the fibrosis (TM) as the fibres of collagen are coloured blue and the observation of the extent of the inflammation.
The fibrosis was evaluated by a semi-quantitative score (0-5) (Ashcroft score) with the increase in severity by two independent observers.
The fibrosis with the deposit of collagen located at the alveolar walls and in the peribronchial area and the infiltration of inflammatory cells were evaluated using a semi-quantitative score of 0-5 with an increasing severity by two independent observers.

[6] = molecular target: T1, histidine decarboxylase (Homo sapiens, UniProt P19113); settings: background statement; cited from earlier work
T1 sequence (P19113 1-662): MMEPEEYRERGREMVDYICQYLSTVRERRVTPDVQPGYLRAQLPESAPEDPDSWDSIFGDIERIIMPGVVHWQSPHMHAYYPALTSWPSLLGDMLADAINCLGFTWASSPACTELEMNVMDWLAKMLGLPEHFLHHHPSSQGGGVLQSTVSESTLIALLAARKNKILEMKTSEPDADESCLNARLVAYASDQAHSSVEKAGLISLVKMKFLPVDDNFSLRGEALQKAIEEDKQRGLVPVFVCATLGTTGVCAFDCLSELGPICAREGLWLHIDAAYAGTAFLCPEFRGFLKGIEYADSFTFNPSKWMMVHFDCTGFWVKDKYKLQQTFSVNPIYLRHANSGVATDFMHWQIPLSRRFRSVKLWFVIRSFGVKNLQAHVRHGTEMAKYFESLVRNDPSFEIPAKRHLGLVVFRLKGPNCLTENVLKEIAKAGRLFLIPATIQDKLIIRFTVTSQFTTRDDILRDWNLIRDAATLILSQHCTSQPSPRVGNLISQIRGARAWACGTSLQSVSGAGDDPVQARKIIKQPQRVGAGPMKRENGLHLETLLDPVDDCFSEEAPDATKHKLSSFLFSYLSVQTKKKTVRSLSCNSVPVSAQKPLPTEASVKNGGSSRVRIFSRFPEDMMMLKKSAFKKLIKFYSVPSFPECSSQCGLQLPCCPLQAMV

[7] = commercial white powder; degrades in Cotarnine and phthalic acid; cited from earlier work
[8] = molecular target: histamine H4 receptor (Homo sapiens, UniProt Q9H3N8); settings: shown in US 2010144718A; cited from earlier work
Chain of histamine H4 receptor (Q9H3N8 whole entry, species assumed): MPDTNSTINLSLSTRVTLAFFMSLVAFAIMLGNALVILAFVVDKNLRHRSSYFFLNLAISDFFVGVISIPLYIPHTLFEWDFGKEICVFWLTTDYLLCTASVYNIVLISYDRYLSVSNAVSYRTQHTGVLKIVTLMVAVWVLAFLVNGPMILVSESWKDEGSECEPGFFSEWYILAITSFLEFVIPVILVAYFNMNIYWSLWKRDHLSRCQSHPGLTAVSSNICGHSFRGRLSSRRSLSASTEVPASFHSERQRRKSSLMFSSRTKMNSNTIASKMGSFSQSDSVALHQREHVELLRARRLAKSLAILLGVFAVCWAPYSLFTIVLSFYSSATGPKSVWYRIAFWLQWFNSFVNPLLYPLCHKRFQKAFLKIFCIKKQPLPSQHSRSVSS

[9] = pirfenidone 100 mg/kg po versus bleomycin

## NC(=NCc1ccc(Cl)cc1)SCCCc1cnc[nH]1 [Clobenpropit]
[1]
  Activity on CFU proliferation when an anti H4 is used: substantially diminished

## CC(=O)N[C@@H](CS)C(=O)O [N-acetylcysteine]
[2]; (0.03-0.32)
  Average decrease in the decline of the forced vital capacity: 0.18 L
[2]
  Decrease in the decline of the diffusion of CO: 24%
  Mortality between the two groups: no difference in mortality
  Relative difference in the decline of the forced vital capacity: 9%

## Cc1ccc(=O)n(-c2ccccc2)c1 [Pirfenidone, pirfenidone]
[3]
  Effect on TGFβ in lung homogenate: strongly inhibits
[4]; pirfenidone 100 mg/kg po, P 0.0450
  Collagen (hydroxyproline), mean±standard deviation: 316.5±9.748 μg/mg of proteins
[4]; [9]
  Collagen (hydroxyproline), difference between the two means (treated versus bleomycin): −23.50±10.90 μg/mg of proteins
[5]; BLM mice, pirfenidone 100 mg/kg po, n=10, bleomycin group 4.2±0.14, P 0.0449
  Histological semi-quantitative score (0-5) (Ashcroft score), mean±standard deviation: 3.8±0.12
[5]; [9]
  Histological score, difference between the two means (treated versus bleomycin): −0.40±0.18

## CCOc1c(N)c2c(c(OCC)c1OCC)C(C1c3c(cc4c(c3OC)OCO4)CCN1C)OC2=O (centres unmarked) [Tritoqualine, 7-Amino-4,5,6-triethoxy-3-(5,6,7,8-tetrahydo-4-methoxy-6-methyl-1,3-dioxolo[4,5-g]isoquinolin-5-yl) phthalide]
[1]
  Effect on the proliferation of CFU rich in H4 receptor: able to inhibit the proliferation of CFU
  Activity on CFU proliferation when an anti H4 is used: substantially diminished
[6]
  Inhibiting activity on histidine decarboxylase: very low
[3]
  Effect on TGFβ in lung homogenate: strongly inhibits
[4]; tritoqualine 20 mg/kg po, P<0.0001
  Collagen (hydroxyproline), mean±standard deviation: 280.0±7.528 μg/mg of proteins
[4]; tritoqualine 20 mg/kg po versus bleomycin
  Collagen (hydroxyproline), difference between the two means (treated versus bleomycin): −60.00±8.975 μg/mg of proteins
[7]
  Stability to light: highly sensitive to light
[8]
  Action on the histamine H4 receptor: very substantial action
[5]; tritoqualine 20 mg/kg po, D14 to D28, P<0.0002
  Efficacy on histology versus bleomycin (conclusion): very high efficacy
[5]; tritoqualine at the dose of 20 or 40 mg/kg, po
  Effect on the histological score: substantially decreases the histological score
